Data: patent US11554091B2, “Composition for enhancing skin elasticity or improving skin wrinkles comprising heptahydroxyflavan as an effective ingredient” (AMOREPACIFIC CORPORATION, priority 2019, dated 2023)

System: MMP-1
Assay: MMP-1 expression level by MMP-1 ELISA kit, UV-stimulated HaCaT cell culture and human fibroblast culture
Format: cell-based
Conditions: for MMP-1 production: Control = 100, UV = 260.4; for effect of inhibiting MMP-1 as compared to catechin or epicatechin: Table 1 and FIG. 3
Experimental: Then, after replacing the medium with an FBS-free DMEM medium to starve the cells, they were treated with UV on the next day.
Then, the cells were starved by replacing the medium with an FBM medium with no supplement. Then, the UV-stimulated HaCaT cell culture and the human fibroblast culture were treated with a total of 6 samples prepared by dissolving the (2R,3S)-heptahydroxyflavan and (2R,3R)-heptahydroxyflavan obtained in Example 1 in 5% DMSO to concentrations of 5 μg/mL (=about 15.5 μM), 10 μg/mL (=about 31.0 μM) and 20 μg/mL (=about 62.1 μM), respectively. As comparative examples, the cultures were treated with a total of 6 samples prepared by dissolving catechin and epicatechin in 5% DMSO at concentrations of 25 μM, 50 μM and 100 μM, respectively.
After the treatment with the samples, the expression level of MMP-1 was measured using the MMP-1 ELISA kit (R&D Systems). Separately from this, positive control groups were treated with 10 μM EGCG or 10 μM retinoic acid instead of heptahydroxyflavan in the same manner as described above.

| Compound | MMP-1 production (5 μg/mL) | MMP-1 production (10 μg/mL) | MMP-1 production (20 μg/mL) | effect of inhibiting MMP-1 as compared to catechin or epicatechin | MMP-1 production (10 μM) | MMP-1 production (25 μM) | MMP-1 production (50 μM) | MMP-1 production (100 μM) |
| --- | --- | --- | --- | --- | --- | --- | --- | --- |
| Oc1ccc([C@H]2Oc3c(O)c(O)c(O)c(O)c3C[C@@H]2O)cc1O [APNP-054] | 282.1 | 267.7 | 183.2 | remarkably superior effect of inhibiting MMP-1 |  |  |  |  |
| Oc1ccc([C@H]2Oc3c(O)c(O)c(O)c(O)c3C[C@H]2O)cc1O [APNP-055] | 281.0 | 286.6 | 160.6 | remarkably superior effect of inhibiting MMP-1 |  |  |  |  |
| O=C(O[C@@H]1Cc2c(O)cc(O)cc2O[C@@H]1c1cc(O)c(O)c(O)c1)c1cc(O)c(O)c(O)c1 [EGCG] |  |  |  |  | 115.4 |  |  |  |
| Oc1cc(O)c2c(c1)O[C@H](c1ccc(O)c(O)c1)[C@H](O)C2 [Epicatechin, epicatechin] |  |  |  |  |  | 294.8 | 289.1 | 196.2 |
| CC1=C(/C=C/C(C)=C/C=C/C(C)=C/C(=O)O)C(C)(C)CCC1 [RA, retinoic acid] |  |  |  |  | 104.5 |  |  |  |
| catechin |  |  |  |  |  | 308.2 | 287.4 | 257.3 |
